Results: PubChem BioAssay AID248 (DTP/NCI, 2004)
“And” between values parts separate entries of the source, which are not always exact repeats. Equal entries are not always repeated. Inconclusive results and toxic doses are left out. Rule as the data show it: active = T/C of 150% or more; inactive = T/C below 125%.

Tested on: L1210 leukemia ip in BDF1 mice, survival T/C
Test: NCI In Vivo Anticancer Drug Screen. Data for tumor model L1210 Leukemia (intraperitoneal) in B6D2F1 (BDF1) mice
Conditions: higher = longer survival
How it was run: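 Survival endpoint. Drug-treated group vs vehicle group, expressed as T divided by C. Tumor passaged by transplantation.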

[1] = endpoint: mean survival time, dose: 50.0 mg/kg/injection, schedule: Q01DX009 (ip), vehicle: saline
[2] = endpoint: mean survival time, dose: 50.0 mg/kg/injection, schedule: Q01DX001 (ip), vehicle: carboxymethylcellulose (CMC)
[3] = endpoint: mean survival time, dose: 100.0 mg/kg/injection, schedule: Q01DX001 (ip), vehicle: saline
[4] = endpoint: mean survival time, dose: 200.0 mg/kg/injection, schedule: Q01DX001 (ip), vehicle: saline
[5] = endpoint: mean survival time, dose: 100.0 mg/kg/injection, schedule: Q01DX009 (ip), vehicle: saline
[6] = endpoint: mean survival time, dose: 100.0 mg/kg/injection, schedule: Q04DX003 (ip), vehicle: saline
[7] = endpoint: mean survival time, dose: 200.0 mg/kg/injection, schedule: Q01DX009 (ip), vehicle: saline
[8] = endpoint: mean survival time, dose: 200.0 mg/kg/injection, schedule: Q04DX003 (ip), vehicle: saline
[9] = endpoint: mean survival time, dose: 400.0 mg/kg/injection, schedule: Q01DX009 (ip), vehicle: saline
[10] = endpoint: mean survival time, dose: 400.0 mg/kg/injection, schedule: Q04DX003 (ip), vehicle: saline
[11] = endpoint: mean survival time, dose: 100.0 mg/kg/injection, schedule: Q01DX001 (ip), vehicle: carboxymethylcellulose (CMC)
[12] = endpoint: mean survival time, dose: 200.0 mg/kg/injection, schedule: Q01DX001 (ip), vehicle: carboxymethylcellulose (CMC)
[13] = endpoint: mean survival time, dose: 400.0 mg/kg/injection, schedule: Q01DX001 (ip), vehicle: carboxymethylcellulose (CMC)
[14] = endpoint: mean survival time, dose: 100.0 mg/kg/injection, schedule: Q01DX009 (ip), vehicle: saline with Tween-80
[15] = endpoint: mean survival time, dose: 200.0 mg/kg/injection, schedule: Q01DX009 (ip), vehicle: saline with Tween-80
[16] = endpoint: mean survival time, dose: 400.0 mg/kg/injection, schedule: Q01DX009 (ip), vehicle: saline with Tween-80
[17] = endpoint: mean survival time, dose: 25.0 mg/kg/injection, schedule: Q01DX009 (ip), vehicle: saline

Measured: T/C

CC1=NCC(C)(C)O1
inactive: endpoint: mean survival time, dose: 100.0 mg/kg/injection, schedule: Q04DX003 (ip), vehicle: saline with Tween-80 98 % of control | endpoint: mean survival time, dose: 200.0 mg/kg/injection, schedule: Q04DX003 (ip), vehicle: saline with Tween-80 95 % of control | endpoint: mean survival time, dose: 400.0 mg/kg/injection, schedule: Q04DX003 (ip), vehicle: saline with Tween-80 98 % of control

O=C(c1ccccc1)c1cc(Cl)ccc1O
inactive: endpoint: mean survival time, dose: 75.0 mg/kg/injection, schedule: Q01DX009 (ip), vehicle: Klucel (hydroxypropylcellulose) (HPC) 102 % of control | endpoint: mean survival time, dose: 100.0 mg/kg/injection, schedule: Q04DX002 (ip), vehicle: Klucel (hydroxypropylcellulose) (HPC) 100 % of control | endpoint: mean survival time, dose: 150.0 mg/kg/injection, schedule: Q01DX009 (ip), vehicle: Klucel (hydroxypropylcellulose) (HPC) 98 % of control | endpoint: mean survival time, dose: 200.0 mg/kg/injection, schedule: Q04DX002 (ip), vehicle: Klucel (hydroxypropylcellulose) (HPC) 93 % of control | endpoint: mean survival time, dose: 300.0 mg/kg/injection, schedule: Q01DX009 (ip), vehicle: Klucel (hydroxypropylcellulose) (HPC) 94 % of control | endpoint: mean survival time, dose: 400.0 mg/kg/injection, schedule: Q04DX002 (ip), vehicle: Klucel (hydroxypropylcellulose) (HPC) 96 % of control

Cc1c2ccccc2c(CNCCSCCCl)c2ccc3ccccc3c12
inactive: [1] 119 % of control | endpoint: mean survival time, dose: 150.0 mg/kg/injection, schedule: Q01DX009 (ip), vehicle: saline 109 % of control | endpoint: mean survival time, dose: 167.0 mg/kg/injection, schedule: Q01DX009 (ip), vehicle: saline 94 % of control

CNc1ncnc2c1ccn2C1OC(CO)C(O)C1O (stereo not drawn)
inactive: [2] 110 % of control

CN=C(NC#N)NCCSCc1nc[nH]c1C
inactive: endpoint: median survival time, dose: 12.0 mg/kg/injection, schedule: Q01DX009 (ip), vehicle: Klucel (hydroxypropylcellulose) (HPC) 100 % of control | endpoint: median survival time, dose: 25.0 mg/kg/injection, schedule: Q01DX009 (ip), vehicle: Klucel (hydroxypropylcellulose) (HPC) 101 % of control | endpoint: median survival time, dose: 50.0 mg/kg/injection, schedule: Q01DX009 (ip), vehicle: Klucel (hydroxypropylcellulose) (HPC) 106 % of control | endpoint: median survival time, dose: 100.0 mg/kg/injection, schedule: Q01DX009 (ip), vehicle: Klucel (hydroxypropylcellulose) (HPC) 106 % of control | endpoint: median survival time, dose: 200.0 mg/kg/injection, schedule: Q01DX009 (ip), vehicle: Klucel (hydroxypropylcellulose) (HPC) 108 % of control | endpoint: median survival time, dose: 400.0 mg/kg/injection, schedule: Q01DX009 (ip), vehicle: Klucel (hydroxypropylcellulose) (HPC) 104 % of control

O=C1CCCC2C1CCCC21OCCO1 (stereo not drawn)
inactive: [3] 96 % of control | [4] 96 % of control | endpoint: mean survival time, dose: 400.0 mg/kg/injection, schedule: Q01DX001 (ip), vehicle: saline 96 % of control

NC(=O)CC[n+]1cccc(C(=O)O)c1
inactive: [5] 93 % of control | [6] 94 % of control | [7] 88 % of control | [8] 93 % of control | [9] 92 % of control | [10] 94 % of control

c1c[nH]cn1
inactive: [1] 93 % of control | [5] 101 % of control and 90 % of control | [6] 97 % of control | [7] 96 % of control and 90 % of control | [8] 97 % of control | [9] 103 % of control | [10] 94 % of control

CCCCCC(=O)OC1CCCCC1C1CCCCC1 (stereo not drawn)
inactive: [2] 96 % of control | [11] 94 % of control | [12] 100 % of control | [13] 96 % of control

Nc1cccc2c1[nH]c(=O)c1ccccc12
inactive: [11] 95 % of control | [12] 97 % of control | [13] 97 % of control

C=CCNC(=O)Oc1cccc(NC(=O)N(C)C)c1
inactive: [14] 107 % of control | [15] 109 % of control | [16] 120 % of control

C=CCC#N
inactive: [17] 95 % of control | [1] 101 % of control | [5] 97 % of control

CC1C(C)C23CCC12C(=O)C(O)C12CCC1(C(O)C3=O)C(C)C2C (stereo not drawn)
inactive: endpoint: mean survival time, dose: 50.0 mg/kg/injection, schedule: Q01DX001 (ip), vehicle: saline 100 % of control | [3] 109 % of control | [4] 111 % of control

CSCCC(NC(C)=O)C(=O)NNC(C)C (stereo not drawn)
inactive: [17] 101 % of control | [1] 92 % of control | [5] 92 % of control | [7] 95 % of control | [9] 93 % of control

COC1OC(C(O)CO)C(O)C(O)C1O (stereo not drawn)
inactive: [14] 110 % of control | [15] 100 % of control | [16] 104 % of control

CS\C(N)=N/N=C/C(C)=N/N=C(/N)SC
inactive: endpoint: mean survival time, dose: 15.0 mg/kg/injection, schedule: Q01DX Z (ip), vehicle: saline 98 % of control | endpoint: mean survival time, dose: 30.0 mg/kg/injection, schedule: Q01DX Z (ip), vehicle: saline 100 % of control | endpoint: mean survival time, dose: 60.0 mg/kg/injection, schedule: Q01DX Z (ip), vehicle: saline 100 % of control and 105 % of control | endpoint: mean survival time, dose: 120.0 mg/kg/injection, schedule: Q01DX Z (ip), vehicle: saline 100 % of control and 105 % of control | endpoint: mean survival time, dose: 240.0 mg/kg/injection, schedule: Q01DX Z (ip), vehicle: saline 100 % of control | endpoint: mean survival time, dose: 480.0 mg/kg/injection, schedule: Q01DX Z (ip), vehicle: saline 105 % of control

CC(O)C#CC(C)O (stereo not drawn)
inactive: endpoint: mean survival time, dose: 12.5 mg/kg/injection, schedule: Q01DX009 (ip), vehicle: Klucel (hydroxypropylcellulose) (HPC) 89 % of control | endpoint: mean survival time, dose: 12.5 mg/kg/injection, schedule: Q04DX003 (ip), vehicle: Klucel (hydroxypropylcellulose) (HPC) 92 % of control | endpoint: mean survival time, dose: 25.0 mg/kg/injection, schedule: Q01DX009 (ip), vehicle: Klucel (hydroxypropylcellulose) (HPC) 102 % of control | endpoint: mean survival time, dose: 25.0 mg/kg/injection, schedule: Q04DX003 (ip), vehicle: Klucel (hydroxypropylcellulose) (HPC) 96 % of control | endpoint: mean survival time, dose: 50.0 mg/kg/injection, schedule: Q01DX009 (ip), vehicle: Klucel (hydroxypropylcellulose) (HPC) 103 % of control | endpoint: mean survival time, dose: 50.0 mg/kg/injection, schedule: Q04DX003 (ip), vehicle: Klucel (hydroxypropylcellulose) (HPC) 103 % of control

CCN(CC)CCCOC(=O)c1ccccc1
inactive: [1] 96 % of control | [5] 100 % of control | [7] 100 % of control

S=P(CP(c1ccccc1)c1ccccc1)(c1ccccc1)c1ccccc1
inactive: endpoint: mean survival time, dose: 100.0 mg/kg/injection, schedule: Q04DX002 (sc), vehicle: olive oil, sesame oil, peanut oil 100 % of control | endpoint: mean survival time, dose: 200.0 mg/kg/injection, schedule: Q04DX002 (sc), vehicle: olive oil, sesame oil, peanut oil 107 % of control | endpoint: mean survival time, dose: 400.0 mg/kg/injection, schedule: Q04DX002 (sc), vehicle: olive oil, sesame oil, peanut oil 104 % of control

Cc1ccc(NC(=O)Oc2cc(C)c(Cl)cc2C(C)C)cc1
inactive: endpoint: mean survival time, dose: 100.0 mg/kg/injection, schedule: Q01DX009 (ip), vehicle: Klucel (hydroxypropylcellulose) (HPC) 98 % of control | endpoint: mean survival time, dose: 200.0 mg/kg/injection, schedule: Q01DX009 (ip), vehicle: Klucel (hydroxypropylcellulose) (HPC) 96 % of control | endpoint: mean survival time, dose: 400.0 mg/kg/injection, schedule: Q01DX009 (ip), vehicle: Klucel (hydroxypropylcellulose) (HPC) 100 % of control

CC(=O)C12OC1CC1C3CCC4=CC(=O)CCC4(C)C3CC(=O)C12C (stereo not drawn)
inactive: endpoint: mean survival time, dose: 75.0 mg/kg/injection, schedule: Q01DX009 (ip), vehicle: carboxymethylcellulose (CMC) 94 % of control | endpoint: mean survival time, dose: 150.0 mg/kg/injection, schedule: Q01DX009 (ip), vehicle: carboxymethylcellulose (CMC) 107 % of control | endpoint: mean survival time, dose: 300.0 mg/kg/injection, schedule: Q01DX009 (ip), vehicle: carboxymethylcellulose (CMC) 105 % of control
